Assay: Effect of autoclave sterilization on final drug concentration in silicone sleeve
Assay type: physicochemical
Conditions: rifampin in silicone sleeve, starting concentration about 0.0738 wt %, autoclave about 30 minutes
Description: FIG. 18 illustrates the effect of sterilization on the final drug concentration, showing the degradation rate versus autoclave time, for example, with a starting concentration of about 0.0738 wt % rifampin in the silicone and running the autoclave about 30 minutes will result in a final concentration of about 0.054 wt % rifampin in the silicone sleeve.
The term “weight percent” or “wt %” means the ratio of the drug weight to the weight of the biocompatible matrix, e.g., the silicone after sterilization, for example, an initial concentration of rifampin of about 0.0738 wt % with about a 30 minute autoclave time will result in a final wt % of about 0.054 in the sterilized product. Other than where expressly indicated, all numbers expressing amounts of materials, concentrations, quantified properties of materials, and so forth, stated in the specification and claims are to be understood as being modified in all instances by the term “about” or “approximately”.

SMILES: CO[C@H]1/C=C/O[C@@]2(C)Oc3c(C)c(O)c4c(O)c(c(/C=N/N5CCN(C)CC5)c(O)c4c3C2=O)NC(=O)/C(C)=C\C=C\[C@H](C)[C@H](O)[C@@H](C)[C@@H](O)[C@@H](C)[C@H](OC(C)=O)[C@@H]1C [rifampin]
- final concentration after autoclave sterilization: about 0.054 wt %
